# Data taken from patent publication US20200108008A1, “OLAPARIB ORAL SUSTAINED AND CONTROLLED RELEASE PHARMACEUTICAL COMPOSITION AND USES THEREOF” (SHANGHAI INSTITUTE OF MATERIA MEDICA, CHINESE ACADEMY OF …, priority 2016, published 2020).
# Experiment: Dissolution of olaparib solid dispersion versus olaparib compound powder in water under sink conditions
# Type: physicochemical
# Details: 37° C., 100 rpm
# Experimental: A solid dispersion was prepared from Olaparib and copolyvidone VA64 by solvent evaporation. That is, olaparib and copolyvidone VA64 were simultaneously dissolved in ethanol/acetone (25/75, v/v), evaporated off the organic solvent under reduced pressure, dried in a vacuum drying oven, and ground and pulverized through a 60 mesh screen to be ready for tableting. For the obtained solid dispersion, in water under sink conditions at 37° C. and 100 rpm, the pharmaceutically active ingredient was dissolved out 90% or more in 30 min. However, under the same conditions, the olaparib compound powder was dissolved out less than 60% in 2h.
compound,measurement,value
"O=C(c1cc(Cc2n[nH]c(=O)c3ccccc23)ccc1F)N1CCN(C(=O)C2CC2)CC1 [olaparib compound powder, 1-(cyclopropylcarboxyl)-4-[5-[(3,4-dihydro-4-oxo-1-phthalazinyl)methyl]-2-fluorobenzoyl]piperazine]",dissolved out in 2h,less than 60%
